In patent US7282210B2, “Process for the in vitro culture of different stages of tissular parasites” (priority 1993, dated 2007):

Legend:
[1] = system: cultured amastigote forms of L. mexicana, L. amazonensis, L. braziliensis and L. chagasi; experiment: direct leishmanicidal effect of nitric oxide on cultured amastigote forms; assay type: cell-based, Leishmania
Text: (§1) Also, one of the mechanisms leading to lysis of the amastigote forms was elucidated.
The culture kinetics as well as the differentiation of the amastigote forms into promastigote forms were monitored after this treatment.

[2] = system: cis-aconitase; experiment: enzymatic activities of amastigote forms treated or not treated with NO; assay type: biochemical, Leishmania
Text: as §1

[3] = system: untreated promastigote forms of L. mexicana; experiment: growth inhibition by pentamidine, untreated promastigote forms; assay type: cell-based; settings: Leishmania mexicana, read-out: IC50 (concentration of pentamidine for which a growth inhibition of 50% is observed)
Text: (§2) In the stage of putting in contact, the parasitic forms are used at concentrations of 10^6 parasite/ml and the activity of the medicaments is studied at increasing concentrations.
(§3) Promastigote forms of L. mexicana resistant to pentamidine are obtained by medicamentous pressure in vitro and have a resistance index of about 30. They are then transformed according to the culture method already described into corresponding cultured amastigote forms which, after determination of the IC50, retain the resistance to pentamidine induced in the promastigote forms.
(§4) For the promastigotes the value is 27 and for the amastigotes it is 26.

[4] = system: resistant promastigote forms of L. mexicana; experiment: growth inhibition by pentamidine, resistant promastigote forms; assay type: cell-based; settings: Leishmania mexicana, read-out: IC50 (concentration of pentamidine for which a growth inhibition of 50% is observed)
Text: as §2, §3, §4

[5] = system: resistant amastigote forms of L. mexicana; experiment: growth inhibition by pentamidine, resistant amastigote forms; assay type: cell-based
Text: as §2, §3, §4

[6] = medium containing alpha-ketoglutaric acid (3 mM) and cis-aconitate (3 mM) added immediately to parasites treated with NO

With `O=S(=O)([O-])[O-].[Fe+2]` [FeSO4] the “growth of NO-treated amastigote forms” value ([1]; medium containing 100 μm of FeSO4 added immediately to parasites treated with NO) was “restore the growth of the amastigote forms”.

For `[N]=O` [NO, nitric oxide], the “leishmanicidal effect on cultured amastigote forms” value ([1]; gaseous NO (1%) carried by nitrogen (99%), pulsed for 15 minutes) was “leishmanicidal activity” and the “effect on cis-aconitase activity” value [2] was “inhibition of cis-aconitase”.

`N=C(N)c1ccc(OCCCCCOc2ccc(C(=N)N)cc2)cc1` [pentamidine] was tested, and the IC50 [3] was 1.2 ± 0.05 µM, the IC50 [4] was 33 µM and the IC50 ([5]; Leishmania mexicana, read-out: IC50 (concentration of pentamidine for which a growth inhibition of 50% is observed)) was 32 ± 1 µM. The “resistance index (IC50 of the resistant strain/IC50 of the untreated strain)” value ([5]; amastigotes) was 26.

With `O=C(O)CCC(=O)C(=O)O` [alpha-ketoglutaric acid] the “growth of NO-treated amastigote forms” value [1, 6] was “restore the growth of the amastigote forms”.

With `O=C(O)/C=C(/CC(=O)O)C(=O)O` [cis-aconitate] the “growth of NO-treated amastigote forms” value [1, 6] was “restore the growth of the amastigote forms”.
